The results in this text go back to patent publication US10421740B2, “Pesticidally active heterocyclic derivatives with sulphur containing substituents” (SYNGENTA PARTICIPATIONS AG, priority 2016, dated 2019).

The test system of data set [1] is Bemisia tabaci (Cotton White Fly). Description: Activity against Bemisia tabaci (cotton white fly): feeding/contact activity. It counts as in vivo. The conditions noted are these: foliar, 144 h, application rate 200 ppm, cotton leaf discs, adult white flies, 6 days after incubation. How it is done:
Example B1: Activity Against Bemisia tabaci (Cotton White Fly): Feeding/Contact Activity
Cotton leaf discs were placed on agar in 24-well microtiter plates and sprayed with aqueous test solutions prepared from 10'000 ppm DMSO stock solutions. After drying the leaf discs were infested with adult white flies. The samples were checked for mortality 6 days after incubation.

Data set [2] deals with Diabrotica balteata (Corn Root Worm). Description: Activity against Diabrotica balteata (corn root worm). The class given is in vivo. Conditions: 96 h, application rate 200 ppm, maize sprouts, L2 larvae, 4 days after infestation, read-out: effect in at least one of the two categories (mortality or growth inhibition). How it is done:
Example B2: Activity Against Diabrotica balteata (Corn Root Worm)
Maize sprouts placed onto an agar layer in 24-well microtiter plates were treated with aqueous test solutions prepared from 10'000 ppm DMSO stock solutions by spraying. After drying, the plates were infested with L2 larvae (6 to 10 per well). The samples were assessed for mortality and growth inhibition in comparison to untreated samples 4 days after infestation.

Data set [3] concerns Myzus persicae (Green Peach Aphid). Description: Activity against Myzus persicae (green peach aphid): feeding/contact activity. The conditions noted are these: foliar, 144 h, application rate 200 ppm, sunflower leaf discs, aphid population of mixed ages, 6 days after infestation. It counts as in vivo. The method, then: Example B3: Activity Against Myzus persicae (Green Peach Aphid): Feeding/Contact Activity
Sunflower leaf discs were placed onto agar in a 24-well microtiter plate and sprayed with aqueous test solutions prepared from 10'000 ppm DMSO stock solutions. After drying, the leaf discs were infested with an aphid population of mixed ages. The samples were assessed for mortality 6 days after infestation.

Data set [4] shares this test system. Description: Activity against Myzus persicae (green peach aphid): systemic activity. The class given is in vivo. The conditions noted are these: 144 h, test rate 24 ppm, roots of pea seedlings in test solution, 6 days. The method, then:
Example B4: Activity Against Myzus persicae (Green Peach Aphid): Systemic Activity
Roots of pea seedlings infested with an aphid population of mixed ages were placed directly into aqueous test solutions prepared from 10'000 DMSO stock solutions. The samples were assessed for mortality 6 days after placing seedlings into test solutions.

In data set [5] the test system is Plutella xylostella (Diamond Back Moth). Description: Activity against Plutella xylostella (diamond back moth). Conditions: 120 h, application rate 200 ppm, artificial diet, L2 larvae, 5 days after infestation, read-out: effect in at least one of the two categories (mortality or growth inhibition). It counts as in vivo. How it is done:
Example B5: Activity Against Plutella xylostella (Diamond Back Moth)
24-well microtiter plates with artificial diet were treated with aqueous test solutions prepared from 10'000 ppm DMSO stock solutions by pipetting. After drying, the plates were infested with L2 larvae (10 to 15 per well). The samples were assessed for mortality and growth inhibition in comparison to untreated samples 5 days after infestation.

Data set [6] concerns Spodoptera littoralis (Egyptian Cotton Leaf Worm). Description: Activity against Spodoptera littoralis (Egyptian cotton leaf worm), uptake via lettuce roots. It counts as in vivo. The conditions noted are these: 144 h, test rate 12.5 ppm, lettuce grown on treated agar, eggs, 6 days after infestation, read-out: effect in at least one of the three categories (mortality, anti-feeding, or growth inhibition). The text has this:
Example B6: Activity Against Spodoptera littoralis (Egyptian Cotton Leaf Worm)
Test compounds were applied by pipette from 10'000 ppm DMSO stock solutions into 24-well plates and mixed with agar. Lettuce seeds were placed onto the agar and the multi well plate was closed by another plate which contained also agar. After 7 days the compound was absorbed by the roots and the lettuce grew into the lid plate. The lettuce leaves were then cut off into the lid plate. Spodoptera eggs were pipetted through a plastic stencil onto a humid gel blotting paper and the lid plate was closed with it. The samples were assessed for mortality, anti-feedant effect and growth inhibition in comparison to untreated samples 6 days after infestation.

The test system is the same in data set [7]. Description: Activity against Spodoptera littoralis (Egyptian cotton leaf worm), cotton leaf disc spray. It counts as in vivo. Conditions: foliar, 72 h, application rate 200 ppm, cotton leaf discs, L1 larvae, 3 days after infestation. How it is done:
Example B8: Activity Against Spodoptera littoralis (Egyptian Cotton Leaf Worm)
Cotton leaf discs were placed onto agar in 24-well microtiter plates and sprayed with aqueous test solutions prepared from 10'000 ppm DMSO stock solutions. After drying the leaf discs were infested with five L1 larvae. The samples were assessed for mortality, anti-feeding effect, and growth inhibition in comparison to untreated samples 3 days after infestation. Control of Spodoptera littoralis by a test sample is given when at least one of the categories mortality, anti-feedant effect, and growth inhibition is higher than the untreated sample.

Data set [8] concerns Anopheles stephensi (Indian Malaria Mosquito). Description: Activity against Anopheles stephensi (Indian malaria mosquito). The class given is in vivo. Conditions: 200 ppm in ethanol, dry deposit; adult females; after 48 h and/or 24 h. The method, then:
Example B10: Activity Against Anopheles stephensi (Indian Malaria Mosquito)
Test solutions, at an application rate of 200 ppm in ethanol, were applied to 12 well tissue culture plates. Once the deposits were dry, five, two to five day old adult female Anopheles stephensi were added to each well, and sustained with a 10% sucrose solution in a cotton wool plug. Assessment of knockdown was made one hour after introduction, and mortality was assessed at 24 and 48 hours after introduction.

Data set [9] relates to Euschistus heros (Neotropical Brown Stink Bug). Description: Activity against Euschistus heros (neotropical brown stink bug). It counts as in vivo. The conditions noted are these: 120 h, application rate 200 ppm, soybean leaves, N2 nymphs, 5 days after infestation, read-out: effect in at least one of the two categories (mortality or growth inhibition). The method, then:
Example B9: Activity Against Euschistus heros (Neotropical Brown Stink Bug)
Soybean leaves on agar in 24-well microtiter plates were sprayed with aqueous test solutions prepared from 10'000 ppm DMSO stock solutions. After drying the leaves were infested with N2 nymphs. The samples were assessed for mortality and growth inhibition in comparison to untreated samples 5 days after infestation.

By mortality is commonly meant the share of the test organisms that died. Higher therefore signals a strong lethal effect. With `CCS(=O)(=O)c1cc2c(cc1-c1nnc(-c3cc(C(F)(F)F)ccn3)n1C)nc(C(F)(F)F)n2C` [Compound A2, 6-ethylsulfonyl-1-methyl-5-[4-methyl-5-[4-(trifluoromethyl)-2-pyridyl]-1,2,4-triazol-3-yl]-2-(trifluoromethyl)benzimidazole], the mortality at 200 ppm in [1] and in data set [3] was not below 80% each time. Further, the percent effect (mortality or growth inhibition) at 200 ppm in data set [2] was not below 80%. This compound also had a mortality at 24 ppm in data set [4] not below 80%. The percent control (mortality or growth inhibition) at 200 ppm in data set [5] is not below 80%. In addition, in data set [6], the percent with effect (mortality, anti-feeding or growth inhibition) at 12.5 ppm was not below 80%. Further, in [7], the percent control (mortality, anti-feedant effect or growth inhibition) at 200 ppm is not below 80%. In data set [8], the “control of Anopheles stephensi” value is “at least 80%”.

Turning to `CCS(=O)(=O)c1cc2sc(C(F)(F)F)nc2cc1-c1nnc(-c2cc(C(F)(F)F)ccn2)n1C` [Compound A8, 6-ethylsulfonyl-5-[4-methyl-5-[4-(trifluoromethyl)-2-pyridyl]-1,2,4-triazol-3-yl]-2-(trifluoromethyl)-1,3-benzothiazole], the mortality at 200 ppm in [1] and in data set [3] was not below 80% each time. Also, in data set [2], the percent effect (mortality or growth inhibition) at 200 ppm was not below 80%. Besides, in data set [5], the percent control (mortality or growth inhibition) at 200 ppm is not below 80%. Besides, the percent with effect (mortality, anti-feeding or growth inhibition) at 12.5 ppm in [6] is not below 80%. In addition, in data set [7], the percent control (mortality, anti-feedant effect or growth inhibition) at 200 ppm is not below 80%. In addition, the effect (mortality or growth inhibition) at 200 ppm in [9] is not below 80%.

One may read the melting point as the temperature of the solid-liquid transition. In the case of `CCS(=O)(=O)c1cc2nnn(COC)c2nc1-c1nnc(-c2cc(C(F)(F)F)ccn2)n1C` [Compound A16, 6-ethylsulfonyl-3-(methoxymethyl)-5-[4-methyl-5-[4-(trifluoromethyl)-2-pyridyl]-1,2,4-triazol-3-yl]triazolo[4,5-b]pyridine], the melting point lay in the range of 198 to 200 °C.
